Source: article PMC5228037, “Discovery and Mechanistic Characterization of Selective Inhibitors of H2S-producing Enzyme: 3-Mercaptopyruvate Sulfurtransferase (3MST) Targeting Active-site Cysteine Persulfide” (Scientific Reports, 2017)

Target: T1, 3MST in cell lysate of 3MST-overexpressing HEK293 cells (Mus musculus, UniProt Q99J99)
T1 construct: expressed in transfected cells; host or cells: HEK293 (transient, 3MST/pCI)
T1 sequence (Q99J99 1-297): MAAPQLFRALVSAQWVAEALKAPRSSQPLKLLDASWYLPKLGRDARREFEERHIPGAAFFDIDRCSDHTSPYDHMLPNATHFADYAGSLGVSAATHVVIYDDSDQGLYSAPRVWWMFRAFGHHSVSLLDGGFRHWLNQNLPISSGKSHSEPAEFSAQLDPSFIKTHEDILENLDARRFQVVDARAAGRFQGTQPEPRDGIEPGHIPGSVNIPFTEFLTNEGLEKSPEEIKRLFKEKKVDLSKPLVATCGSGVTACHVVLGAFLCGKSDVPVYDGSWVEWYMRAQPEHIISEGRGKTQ
Assay: Inhibitory activity in lysate of m3MST-overexpressing HEK293 cells by gas chromatography
Assay type: biochemical
Conditions: 10 μM compound, 100 μM 3MP, 100 μM DTT, 37 °C 15 min
Procedure: Figure 2 Selectivity assessment of hit compounds for 3MST over other H2S/polysulfides-producing enzymes and rhodanese. (a) 3MST-Inhibitory activity of hit compounds at 10 and 100 μM in cell lysate of 3MST-expressing HEK293 cells. 100 μM 3MP and 100 μM DTT were added to the solution containing 0.1% DMSO as a cosolvent, and the mixture was incubated at 37 °C for 15 min. H2S production was measured by gas chromatography. All data are presented as the mean ± S.D. (100 μM: n = 3 or 4; 10 μM: n = 3). (b) Selectivity assessment of hit compounds at 100 μM towards CBS and CSE. Only DMSO was added to the control sample instead of DMSO solution containing hit compounds. H2S production was monitored by gas chromatography. All data are presented as the mean (n = 3). (c) Detection method for rhodanese activity (Sörbo method). (d) Selectivity assessment of hit compounds towards rhodanese. The results are mean ± S.D. (n = 4, three times). These values were determined based upon the absorbance of [Fe(SCN)3] at 460 nm (Sӧrbo method). […] (e) Fluorescence confocal microscopic images of live COS7 cells transfected with 3MST or an empty vector[9] as a control. […] F/F0 was calculated by dividing the fluorescence intensity of cells after addition of 500 μM 3MP (10 min) by that of cells before addition of 500 μM 3MP (Pre), then the mean F/F0 was determined from 5 cells. […]

| inhibition at 10 µM [%] | Compound |
| --- | --- |
| 80 to 90 | NC(=O)c1ccsc1NC(=O)CSc1nc2ccccc2c(=O)[nH]1 [compound 1] |
| 80 to 90 | Cc1cc(=O)[nH]c(SCC(=O)c2cccc3ccccc23)n1 [compound 3] |
